Calls of active or inactive are those of the source. The rule behind the calls is not given here. Positions of bridges follow the written chain, without caps; N, C: chain ends. Non-standard residues stand in square brackets, D forms with d. Residues, ends and D or L forms follow the SMILES beside them. 2Thi = N[C@@H](Cc1cccs1)C(=O)O
Columns and labels:
[1] = Inhibition of oxytocin receptor in conscious chicken assessed as inhibition of oxytocin-induced vasodepressor response; set-up: species or system Gallus gallus
[2] = species: Rattus norvegicus; experiment: Antidiuretic activity in rat at 0.1 mg; type: functional, Urine
[3] = species: Rattus norvegicus; experiment: Effect on pressor response in rat at 0.1 mg; type: functional
[4] = biological target: T1, Oxytocin receptor (Rattus norvegicus) (UniProt P70536); experiment: Binding affinity to rat oxytocin receptor
T1 sequence (whole entry): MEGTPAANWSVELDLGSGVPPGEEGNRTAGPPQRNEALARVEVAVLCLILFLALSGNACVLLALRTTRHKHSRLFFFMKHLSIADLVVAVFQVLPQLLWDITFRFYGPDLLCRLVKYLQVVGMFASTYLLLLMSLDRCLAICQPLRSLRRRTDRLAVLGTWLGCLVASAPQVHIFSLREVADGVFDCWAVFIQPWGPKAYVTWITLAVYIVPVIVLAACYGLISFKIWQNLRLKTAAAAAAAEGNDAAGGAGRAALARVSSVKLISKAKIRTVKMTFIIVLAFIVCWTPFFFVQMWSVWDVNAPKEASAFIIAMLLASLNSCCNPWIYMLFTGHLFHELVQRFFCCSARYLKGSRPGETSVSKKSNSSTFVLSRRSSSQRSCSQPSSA

[5] = biological target: T1, Oxytocin receptor (Rattus norvegicus); experiment: Intrinsic activity at rat oxytocin receptor relative to oxytocin
[6] = species: Rattus norvegicus; experiment: Uterotonic potency in rat; type: functional

- pA2 [1]: 7.44
- Activity [4]: inactive
- Intrinsic activity [5]: 64%
Compound: CC[C@H](C)[C@@H]1NC(=O)[C@H](Cc2ccc(O)cc2)NC(=O)[C@@H](N)CSSC[C@@H](C(=O)N2CCC[C@H]2C(=O)N[C@@H](CC(C)C)C(=O)NCC(N)=O)NC(=O)[C@H](CC(N)=O)NC(=O)[C@H](Cc2cccs2)NC1=O (H-CYI[2Thi]NCPLG-NH2; disulfide 1-6)
- Activity [2]: <0.05 U/mg
- Activity [3]: <0.05 U/mg
- Activity [6]: 0.51 U/mg

Source: ChEMBL document CHEMBL3244018, “Synthesis and some pharmacological properties (4-beta-(2-thienyl)-L-alanine)oxytocin” (J Med Chem, 1978)
